In US20220323269A1, “PERSONAL HYGIENE PRODUCT” (Croda International Plc, priority 2019, published 2022):

Tests used:
Format in all cases: in vivo
[1] = test system: skin, volar forearm test sites; experiment: Comparative irritation panel study vs ester based emollient, TEWL by POST protocol (Example 4); settings: FIG. 9; 10 gsm polypropylene nonwoven; 0.6% Cirrasol Care + 12% additive; 24 hours under occlusion patch; 16 panellists
Excerpt: 10 gsm polypropylene nonwoven textile was cut into 11 mm diameter circles. Each circle was individually treated with water based dispersions then dried to achieve a treat rate of a) 0.6% low-irritation hygiene finish (Cirrasol™ Care ex. Croda, Sample A) based on weight of textile, or b) 0.6% low-irritation hygiene finish and 12% di-PPG-2 myreth-10 adipate (a diester skin care additive in accordance with the present invention, Sample B), or c) 0.6% low-irritation hygiene finish and 12% of a saturated tri-ester based emollient (Crodamol™ GTCC ex. Croda, Sample C). Treat rates are expressed as percentage by weight of textile. […]
(§1) For each panellist three test sites on each volar forearm were identified and marked (i.e. 6 test sites in total per panellist were assessed). An initial trans-epidermal water loss (TEWL) reading was taken using an AquaFlux AF200 Instrument to ensure no initial skin irritation at each of the 6 test sites. […]
(§2) After 24 hours panellists were again acclimatised to the laboratory environment for 20 mins at 20° C. and 45% relative humidity. TEWL was measured using the POST (post occlusion stress test) protocol. Under this test the occlusion patch is removed, along with the textile sample, the test site is then wiped of any surface moisture, and then TEWL readings are taken immediately using the same AquaFlux AF200 Instrument. […]

[2] = test system: skin, volar forearm test sites; experiment: Irritation panel study, TEWL by POST (post occlusion stress test) protocol, SLS irritant model (Example 1); settings: FIG. 1; 10 gsm polypropylene nonwoven with 1% SLS + 2% diester vs 1% SLS alone (Sample A); 24 hours under occlusion patch; 9 panellists
Excerpt: 10 gsm polypropylene nonwoven textile was cut into 11 mm diameter circles. Each circle was individually treated with water based dispersions then dried to achieve either a treat rate of a) 1% sodium lauryl sulphate (SLS, Sample A) based on weight of textile, or b) 1% SLS and 2% di-PPG-2 myreth-10 adipate (a diester skin care additive in accordance with the present invention, Sample B) based on percentage by weight of textile. SLS is a known skin irritant, and so provides a good model for assessing skin irritancy in test subjects/panellists.
An irritation panel study was carried out, the study included 9 individual panellists. […]
as §1, §2

[3] = test system: skin, volar forearm test sites; experiment: Comparative irritation panel study vs glycerine based emollient, TEWL by POST protocol (Example 3); settings: FIG. 8; 10 gsm polypropylene nonwoven; 0.6% Cirrasol Care + 12% additive; 24 hours under occlusion patch; 16 panellists
Excerpt: 10 gsm polypropylene nonwoven textile was cut into 11 mm diameter circles. Each circle was individually treated with water based dispersions then dried to achieve a treat rate of a) 0.6% low-irritation hygiene finish (CirrasolTM Care ex. Croda, Sample A), or b) 0.6% low irritation hygiene finish and 12% […]-10 adipate (a diester skin care additive in accordance with the present invention, Sample B), or c) 0.6% low-irritation hygiene finish and 12% of a glycerine based emollient (Sample C). Treat rates are expressed as percentage by weight of textile. An irritation panel study was carried out, the study included 16 individual panellists. […] For each panellist three test sites on each volar forearm were identified and marked (i.e. 6 test sites in total per panellist were assessed). An initial trans-epidermal water loss (TEWL) reading was taken using an AquaFlux AF200 Instrument to ensure no initial skin irritation at each of the 6 test sites. […] TEWL was measured using the POST (post occlusion stress test) protocol. Under this test the occlusion patch is removed, along with the textile sample, the test site is then wiped of any surface moisture, and then TEWL readings are taken immediately using the same AquaFlux AF200 Instrument. TEWL is measured until the water loss rate peaks, and for the following 5 minutes. Results are measured in total water loss for 5 minutes after water loss rate peaks. […]

## di-PPG-2 myreth-10 adipate [diester skin care additive]
[1]
  skin irritation from nonwoven in contact with skin (combined average TEWL) compared to low-irritancy hygiene finish alone: reduced skin irritation
[2]
  decrease in skin water loss (combined average TEWL of all panellists): 31%
[3]
  skin irritation from nonwoven in contact with skin (combined average TEWL) compared to low-irritancy hygiene finish alone: reduced skin irritation
